Data on 3 molecules can be found in patent US6054598A, “Synthesis of 2-alkoxyestradiols” (Pharm-Eco Laboratories, Inc., priority 1998, dated 2000).

One data set relates to tubulin. In words: Inhibition of polymerization of purified tubulin. It is filed as biochemical, bovine. The following applies: for IC50: extent of polymerization after 20 min incubation, 26° C., 350 nm, read-out: Inhibn of Tubulin Polymn IC50. As for the experimental part: Electrophoretically homogeneous tubulin was purified from bovine brain as described previously (Hamel et al., Biochemistry 23:4173-4184 (1984)). Determination of IC50 values for the polymerization of purified tubulin was performed as described in D'Amato et al. Proc. Natl. Acad. Sci. U.S.A. 91:3964-3968 (1994). Tubulin was preincubated at 26° C. with varying compound concentrations, reaction mixtures were chilled on ice, GTP (required for the polymerization reaction) was added, and polymerization was followed at 26° C. by turbidimetry at 350 nm in Gilford recording spectrophotometers equipped with electronic temperature controllers. Four instruments were used, and two control reaction mixtures were present in each experiment. The extent of polymerization after a 20 min incubation was determined (the values for the two controls were usually within 5% of each other). IC50 values were determined graphically. […] Inhibition of colchicine binding to tubulin was performed as described previously (D. Amato et al., Proc. Natl. Acad. Sci. U.S.A. 91:3964-3968 (1994)). […] Incubation was for 30 min at 37° C.

For data set [1], the system named is HOP-62 non-small-cell lung cancer cells. In words: NCI anticancer screen, cytotoxicity, HOP-62 non-small-cell lung cancer cells. It is filed as cell-based. The following applies: Homo sapiens. From the text:
(§1) The effects of the analogs on cancer cell growth was investigated in the National Cancer Institute (NCI) Developmental Therapeutics Program's in vitro panel of approximately 55 cell lines (Grever et al., Seminars in Oncology 19:622 (1992), Alley et al., Cancer Research 48:589 (1988) and Montes et al., J. National Cancer Institute 83:757 (1991)).

In data set [2] the test system is HCT-116 colon cancer cells. In words: NCI anticancer screen, cytotoxicity, HCT-116 colon cancer cells. It is filed as cell-based. The conditions noted are these: Homo sapiens.
Text: as §1

In data set [3] the test system is SF-539 central nervous system (CNS) cancer cells. In words: NCI anticancer screen, cytotoxicity, SF-539 central nervous system (CNS) cancer cells. The conditions noted are these: Homo sapiens. Type of data set: cell-based.
Text: as §1

The test system of a further data set is UACC-62 melanoma cells. In words: NCI anticancer screen, cytotoxicity, UACC-62 melanoma cells. It is filed as cell-based. The conditions noted are these: Homo sapiens.
Text: as §1

Data set [4] relates to OVCAR ovarian cancer cells. In words: NCI anticancer screen, cytotoxicity, OVCAR ovarian cancer cells. The conditions noted are these: Homo sapiens, read-out: cytotoxicity GI50, Ovarian OVCAR. Type of data set: cell-based.
Text: as §1

For data set [5], the system named is SN12--C renal cancer cells. In words: NCI anticancer screen, cytotoxicity, SN12-C renal cancer cells. It is filed as cell-based. The following applies: Homo sapiens, SN12C, read-out: cytotoxicity GI50, Renal SN12-C.
Text: as §1

Data set [6] concerns DU-145 prostate cancer cells. In words: NCI anticancer screen, cytotoxicity, DU-145 prostate cancer cells. It is filed as cell-based. The following applies: Homo sapiens.
Text: as §1

Data set [7] deals with MDA-MB-435 breast cancer cells. In words: NCI anticancer screen, cytotoxicity, MDA-MB-435 breast cancer cells. Type of data set: cell-based. The conditions noted are these: Homo sapiens.
Text: as §1

The subject of data set [8] is human cancer cell lines (approximately 55). In words: NCI anticancer screen, in vitro panel of approximately 55 cell lines. The following applies: for GI50: read-out: cytotoxicity MGM (mean graph midpoint for all human cancer cell lines tested). Type of data set: cell-based.
Text: as §1

A further data set deals with solid tumors. The conditions noted are these: in mice; Fotsis et al., Nature 368:237 (1994); cited from earlier work.
Where [9] appears, read: HOP-62, read-out: cytotoxicity GI50, Lung HOP-62.
Where [10] appears, read: HCT-116, read-out: cytotoxicity GI50, Colon HCT-116.
The mark [11] stands for this setting: SF-539, read-out: cytotoxicity GI50, CNS SF-539.
Setting [12] is: UACC-62, read-out: cytotoxicity GI50, Melanoma UACC-62.
Where [13] appears, read: DU-145, read-out: cytotoxicity GI50, Prostate DU-145.
Where [14] appears, read: MDA-MB-435, read-out: cytotoxicity GI50, Breast MDA-MB-435.

Where two headings read alike, the source gives them in different places. Bounds are passed on as bounds.

Broadly, the IC50 is the midpoint of a concentration-inhibition curve. As for `C[C@]12CC[C@@H]3c4cc(OCC(F)(F)F)c(O)cc4CC[C@H]3[C@@H]1CC[C@@H]2O` [Compound 9, 2-(2',2',2'-Trifluoroethoxy)estra-1,3,5(10)-Trien-3,17β-Diol], the IC50 in the data set on tubulin was found to be 1.7 µM. The GI50 in data set [1] (setting [9]) amounted to 11.6 µM; in data set [2] (setting [10]), 3.22 µM; in data set [3] (setting [11]) it was 1.38 µM; with UACC-62 melanoma cells (setting [12]), 2.32 µM; in [4], 0.46 µM; in [5], 4.46 µM. For the same molecule, the GI50 in data set [6] (setting [13]) was 7.05 µM; in data set [7] (setting [14]), 0.28 µM; in data set [8] (Homo sapiens), 2.63 µM.
With `CCOc1cc2c(cc1O)CC[C@@H]1[C@@H]2CC[C@]2(C)[C@@H](O)CC[C@@H]12` [Compound 10, 2-Ethoxyestra-1,3,5(10)-trien03,17β-diol], the “activity on tubulin polymerization relative to 2-methoxy estradiol (1)” value with tubulin (compared with 2-methoxy estradiol (1)) is listed as “over three times more active”. Also, the IC50 in the data set with tubulin was 0.91 ± 0.5 µM. Moreover, the GI50 is 0.018 µM in [1] (setting [9]); 0.026 µM in data set [2] (setting [10]); 0.014 µM in data set [3] (setting [11]); 0.016 µM with UACC-62 melanoma cells (setting [12]); 0.016 µM in data set [4]; 0.039 µM in data set [5]. The GI50 is 0.065 µM in [6] (setting [13]), under 0.01 µM in [7] (setting [14]) and 0.076 µM in [8] (Homo sapiens). Further, the “activity against all the cell lines listed in Table 1 relative to 2-methoxy estradiol (1)” value in data set [8] (all the cell lines listed in Table 1, compared with 2-methoxy estradiol (1)) is “more active”.
Regarding `COc1cc2c(cc1O)CC[C@@H]1[C@@H]2CC[C@]2(C)[C@@H](O)CC[C@@H]12` [Compound 1, 2-methoxy estradiol, reference compound], in the data set on tubulin, the IC50 worked out at 2.9 ± 0.6 µM. Moreover, the GI50 in [1] (HOP-62, concentration corresponding to 50% growth inhibition, read-out: cytotoxicity GI50, Lung HOP-62) is 0.7 µM; in [2] (HCT-116, concentration corresponding to 50% growth inhibition, read-out: cytotoxicity GI50, Colon HCT-116) it was 0.47 µM; in [3] (SF-539, concentration corresponding to 50% growth inhibition, read-out: cytotoxicity GI50, CNS SF-539) it was 0.32 µM; with UACC-62 melanoma cells (UACC-62, concentration corresponding to 50% growth inhibition, read-out: cytotoxicity GI50, Melanoma UACC-62), 0.36 µM; in data set [4] (OVCAR, concentration corresponding to 50% growth inhibition) it was 0.21 µM; in data set [5] (SN12-C, concentration corresponding to 50% growth inhibition), 0.95 µM. The GI50 in data set [6] (DU-145, concentration corresponding to 50% growth inhibition, read-out: cytotoxicity GI50, Prostate DU-145) is 1.8 µM; in data set [7] (MDA-MB-435, concentration corresponding to 50% growth inhibition, read-out: cytotoxicity GI50, Breast MDA-MB-435), 0.08 µM; in data set [8] (approximately 55 human cancer cell lines, GI50), 1.3 µM. For the same molecule, in the data set with solid tumors, the “apparent signs of toxicity at tumor growth inhibiting doses” value is reported as “no apparent signs of toxicity”. Also, the “inhibition of growth of solid tumors” value with solid tumors is listed as “inhibits their growth”. Besides, the “inhibition of neovascularization of solid tumors” value with solid tumors is “potent inhibitor of neovascularization of solid tumors”.
